Experiment: Determination of bio-accumulation: urinary clearance pharmacokinetic study in rats
Assay type: in vivo, male Sprague Dawley rats
Details: 73 micro Moles per kg body weight, oral gavage; for T½ (renal half-life): exponential least squares curve fitting of urine concentration (fluorine NMR); for % Recovery (96 h): parent compound in urine up to 96 h; for Compound-related Effects: clinical signs, gross necropsy at 96 hours post-dose
Text: Animals we observed throughout the study for clinical signs of toxicity.

| SMILES | T½ (renal half-life) | % Recovery (96 h) | Compound-related Effects |
| --- | --- | --- | --- |
| N.O=C(O)C(F)(F)C(F)(F)OC(F)(F)F [Compound 1, CF3—O—CF2—CF2—COONH4] | 11 h | 100% |  |
| N.O=C(O)C(F)(F)C(F)(F)OC(F)(F)C(F)(F)F [Compound 2, C2F5—O—CF2—CF2—COONH4] | 10 h | 100% |  |
| N.O=C(O)C(F)(F)C(F)(F)OC(F)(F)C(F)(F)C(F)(F)F [Compound 3, C3F7—O—CF2—CF2—COONH4] | 12 h | 82% |  |
| N.O=C(O)C(F)(F)C(F)(F)OC(F)(F)C(F)(F)C(F)(F)C(F)(F)F [Compound 4, C4F9—O—CF2—CF2—COONH4] | 31 h | 42% | Hepatomegaly |
| N.O=C(O)C(F)(F)C(F)(F)C(F)(F)C(F)(F)C(F)(F)C(F)(F)C(F)(F)F [Compound C-1, C7F15COONH4, reference compound] | ~550 h | 6% | Hepatomegaly |

Reference: patent publication US7776946B2, “Aqueous emulsion polymerization of fluorinated monomers using a fluorinated surfactant” (3M Innovative Properties Company, priority 2005, dated 2010)
